The source of these data is article PMC10747029 (Pharmaceutics, 2023).

Entries after “also recorded” stand apart in the source; their conditions may differ. Like-named read-outs stand apart in the source and are kept apart here.

The subject of data set [1] is human cervical adenocarcinoma HeLa. As to the kind of experiment: MTT cell viability assay, HeLa. In kind it is cell-based. The settings on record: Homo sapiens, HeLa, 48 h, 48 h incubation, MTT. As for the experimental part:
(§1) The cell cultures were grown at 37 °C in an atmosphere of 5% CO2 and 100% humidity.
(§2) The cell viability was assessed using the MTT method. The cell cultures were seeded in 96-well plates at a density of 10,000 cells per well. After the cells were attached to the surface of the wells, they were incubated in the presence of the test substances at final concentrations in the range of 10^−8 M to 10^−4 M for 48 h. […] At the end of the incubation, the medium in which the cells with substances were cultivated was replaced with a nutrient medium without fetal calf serum, which contained 5 mg/mL MTT, and the incubation continued for another 2 h in a CO2 incubator. After incubation, the medium with MTT was removed, and a DMSO solution was added to the wells to dissolve the formazan precipitate formed from MTT during the cell life. The optical density of the samples was measured at a wavelength of 530 nm on a photometer Uniplan AIFR-01 (Pikon, Moscow, Russia). The cell viability in the cultures was expressed as a percentage relative to the values obtained for the control samples (without tested compounds). The average values of optical density in the control samples were taken as 100%.
(§3) Statistical analysis was carried out using the GraphPad Prism v8.4.3 software with nonlinear regression analysis for the cell viability assay. Each experiment was repeated three times, with three repetitions (3 wells) within each experiment and 12 repetitions for the control wells (for the control in each experiment, the whole line of the 96-well plate was used to avoid large differences within the control points). The mean ± standard deviation value was calculated for each point.

Data set [2] deals with human larynx carcinoma Hep-2. As to the kind of experiment: MTT cell viability assay, Hep-2. In kind it is cell-based. Conditions: Homo sapiens, HEp-2; 48 h incubation, MTT. As to the method:
as §1, §2, §3

Data set [3] concerns human breast adenocarcinoma MCF-7. The data set is described as follows: MTT cell viability assay, MCF-7. In kind it is cell-based. Conditions: Homo sapiens, MCF7; 48 h incubation, MTT. As to the method:
as §1, §2, §3
(Tetrazolium dyes change colour on reduction, which living cells bring about.)

Data set [4] deals with human chronic erythroleukemia K-562. The data set is described as follows: MTT cell viability assay, K-562. In kind it is cell-based. Conditions: 48 h incubation, MTT. As to the method: as §1, §2, §3
Data set [5] relates to human embryonic lung fibroblasts Wi-38. The data set is described as follows: MTT cell viability assay, Wi-38 (non-tumor). The settings on record: 48 h incubation, noncancerous cells. It counts as cell-based. As to the method:
All cell lines were obtained from the Russian Research Institute of Medicinal and Aromatic Plants biocollection bank: http://vilarnii.ru/biokollektsii/ (accessed on 30 August 2023).
The cell cultivation was carried out under sterile conditions on the culture medium DMEM/F-12 (for HeLa, Hep-2, MCF-7, Wi-38) and RPMI (for K-562) supplemented with 10% fetal calf serum and antibiotics (penicillin and streptomycin 100 units/mL, amphotericin B 100 µg/mL). The cell cultures were grown at 37 °C in an atmosphere of 5% CO2 and 100% humidity.
as §2, §3
The analysis of the experimental curves using the GraphPad Prism v8.4.3 program (San Diego, CA, USA) gave the half-maximal inhibition concentrations (IC50) for each compound on all cell lines.

The subject of data set [6] is adenine nucleotide translocase ANT1 (SLC25A4) expression in MCF-7 cells. The data set is described as follows: Real-time PCR of ANT1 expression, MCF-7. In kind it is cell-based, human. The settings on record: 10 μM, 48 h incubation, 2^−∆∆CT vs GAPDH. A general note: In qPCR the cycle at which signal appears reflects the starting amount.
Protocol: (§4) The mRNA was extracted using an RNA extraction kit (Syntol, Moscow, Russia), and cDNA synthesis was performed using the cDNA Reverse Transcription Kit OT-1 (Syntol, Russia) with random hexamers according to the manufacturer’s instructions. The real-time steps were run on an iCycler iQ5 real-time PCR instrument (Bio-Rad, Hercules, CA, USA) in 40 cycles, with the following steps: denaturation step (10 s, 95 °C), annealing and elongation step (40 s, 62 °C). We used 10 μL of the quantitative real-time PCR reaction mix from a commercial kit (Cat. No M-427, Syntol, Moscow, Russia) for each probe. Primers were used at 100 nM for each probe per reaction, 2 μL of the forward primer, and 2 μL of the reverse primer. […] To determine the levels of gene expression, the values 2^−∆∆CT were used, where the threshold number of cycles (Ct) is the number of PCR cycles at which the fluorescence exceeds the threshold value (to detect significant differences between data groups) and 2^−∆∆CT (for determining the multiplicity of differences, where ∆Ct = Ct (of the desired gene) − Ct (GAPDH) and ∆∆Ct = ∆Ct (sample) − ∆Ct (control)) [38].
The subject of data set [7] is adenine nucleotide translocase ANT1 (SLC25A4) expression in K-562 cells. As to the kind of experiment: Real-time PCR of ANT1 expression, K-562. It counts as cell-based, human. The settings on record: 10 μM, 48 h incubation, 2^−∆∆CT vs GAPDH.
Protocol: The mRNA was extracted using an RNA extraction kit (Syntol, Moscow, Russia), and cDNA synthesis was performed using the cDNA Reverse Transcription Kit OT-1 (Syntol, Russia) with random hexamers according to the manufacturer’s instructions. The real-time steps were run on an iCycler iQ5 real-time PCR instrument (Bio-Rad, Hercules, CA, USA) in 40 cycles, with the following steps: denaturation step (10 s, 95 °C), annealing and elongation step (40 s, 62 °C). We used 10 μL of the quantitative real-time PCR reaction mix from a commercial kit (Cat. No M-427, Syntol, Moscow, Russia) for each probe. Primers were used at 100 nM for each probe per reaction, 2 μL of the forward primer, and 2 μL of the reverse primer. The total probe volume in a flat cap was 25 μL. The Gapdh (glyceraldehyde phosphate dehydrogenase) gene was used as a control gene (housekeeping gene). […] To determine the levels of gene expression, the values 2^−∆∆CT were used, where the threshold number of cycles (Ct) is the number of PCR cycles at which the fluorescence exceeds the threshold value (to detect significant differences between data groups) and 2^−∆∆CT (for determining the multiplicity of differences, where ∆Ct = Ct (of the desired gene) − Ct (GAPDH) and ∆∆Ct = ∆Ct (sample) − ∆Ct (control)) [38].
The statistical significance of the real-time PCR data was determined using the Mann–Whitney U test (p < 0.05) between the control group (non-treated cells) and treated group (drug-treated cells). Each experiment was repeated three times, with three repeats (3 wells) within each experiment. The mean ± standard deviation value was calculated for each point.
Data set [8] concerns adenine nucleotide translocase ANT1 (SLC25A4) expression in Wi-38 cells. The data set is described as follows: Real-time PCR of ANT1 expression, Wi-38. In kind it is cell-based, human. Conditions: 10 μM, 48 h incubation, 2^−∆∆CT vs GAPDH.
Protocol: as §4
Data set [9] deals with adenine nucleotide translocase ANT1 (SLC25A4) expression in Hep-2 cells. As to the kind of experiment: Real-time PCR of ANT1 expression, Hep-2. It counts as cell-based, human. The settings on record: 10 μM, 48 h incubation, 2^−∆∆CT vs GAPDH. As for the experimental part: The mRNA was extracted using an RNA extraction kit (Syntol, Moscow, Russia), and cDNA synthesis was performed using the cDNA Reverse Transcription Kit OT-1 (Syntol, Russia) with random hexamers according to the manufacturer’s instructions. The real-time steps were run on an iCycler iQ5 real-time PCR instrument (Bio-Rad, Hercules, CA, USA) in 40 cycles, with the following steps: denaturation step (10 s, 95 °C), annealing and elongation step (40 s, 62 °C). We used 10 μL of the quantitative real-time PCR reaction mix from a commercial kit (Cat. No M-427, Syntol, Moscow, Russia) for each probe. Primers were used at 100 nM for each probe per reaction, 2 μL of the forward primer, and 2 μL of the reverse primer. […] To determine the levels of gene expression, the values 2^−∆∆CT were used, where the threshold number of cycles (Ct) is the number of PCR cycles at which the fluorescence exceeds the threshold value (to detect significant differences between data groups) and 2^−∆∆CT (for determining the multiplicity of differences, where ∆Ct = Ct (of the desired gene) − Ct (GAPDH) and ∆∆Ct = ∆Ct (sample) − ∆Ct (control)).
The statistical significance of the real-time PCR data was determined using the Mann–Whitney U test (p < 0.05) between the control group (non-treated cells) and treated group (drug-treated cells). […] The mean ± standard deviation value was calculated for each point.

For another data set, the system named is HeLa. Conditions: cited from earlier work.
The test system of another data set is MCF-7. The settings on record: 48 h incubation; read-out: IC50 MCF-7 (literature); cited from earlier work.
The subject of another data set is HT-29. Conditions: 48 h incubation; read-out: IC50 HT-29 (literature); cited from earlier work.
Details of data set [10]: method as in printed. Conditions: by 2 h after oral administration of a 50 mg tablet; literature data, ref not given; cited from earlier work.
Another data set has as its system MCT4. Also noted: method as in PMID 31577944. The settings on record: read-out: IC50 lactate transporter activity MCT4; cited from earlier work.

A word on the IC50: it is the point on the concentration scale where inhibition reaches its midpoint. In the case of `O=C(O)Cc1ccccc1Nc1c(Cl)cccc1Cl` [DCF, diclofenac], the IC50 in [1] was 384 ± 99.1 µM; in data set [2], 146 ± 22.5 µM; in data set [3] it was 595 ± 119 µM; in data set [4] it was 31.5 ± 8.45 µM; in data set [4] (Homo sapiens, K562, 48 h) it was 31 µM; in data set [5] it was more than 100 µM. Moreover, the IC50 in the data set on HeLa (48 h incubation, read-out: IC50 HeLa (literature)) was 548 µM; with HeLa (read-out: IC50 HeLa, values obtained earlier), 200 µM; with MCF-7 it was 150 µM; in the data set on HT-29 it was 248 µM; in the data set with MCT4, 0.14 ± 0.01 µM. The “ANT1 mRNA expression in MCF-7 cells” value in data set [6] was “decreased it”. The “ANT1 mRNA expression in K562 cells” value in [7] is recorded as “decreased it; also recorded: highest inhibition rate of ANT1 expression”. Also, the “ANT1 mRNA expression in Wi-38 cells” value in [8] is on record as “increased ANT1 expression”. In addition, the “ANT1 mRNA expression in Hep-2 cells” value in data set [9] is “decreased it”. For the same compound, the “maximum concentration in the blood” value in data set [10] was 5 µM.
